Data set [1] concerns TNBC patient derived xenograft (PDX) (ID: BR0901). Nature of the data set: TNBC PDX study, survival. The note with it: n=10 per group, once-a-day max 28 days; Buparlisib 30 mg/kg, WNT974 3 mg/kg. Format: in vivo, NSG mice. As for the experimental part: NSG mice were trochar implanted in the right hind flank with a passage 1-4, 5 mm^3 TNBC patient derived xenograft (PDX) (ID: BR0901) at The Jackson Laboratory (The Jackson Laboratory, Bar Harbor, Maine). […] 40 TNBC PDX implanted mice were used (10 mice per group: Vehicle, Buparlisib (30 mg/kg), WNT974 (3 mg/kg), and Buparlisib+WNT974). Tumors were grown to an average of 70-150 mm^3 and mice averaged 22.5 grams body weight. Mice were dosed once-a-day for a maximum of 28 days. Tumor measurements were made two times a week. Mice whose tumors reached a size of 1500 mm^3 were euthanized per IACUC protocol.

Another data set concerns Phospho-AKT. Briefly: pAKT western blot on TMD-231 tumors (PD study). The note with it: 7 days once-a-day; Buparlisib 30 mg/kg, WNT974 3 mg/kg. Format: in vivo, NSG mice. The method, then: For Western Blot analysis, target modulation was assessed using qPCR for Axin2 (a marker of WNT974), and western blot for Porcupine and Phospho-Akt […] (a marker of Buparlisib activity). qPCR was performed using Taqman assays (Life Technologies). For western blotting, protein was isolated using RIPA buffer and quantified with BCA assay (Thermo Fisher). Protein was run on Bis-Tris gels (Life Technologies) and transferred to PVDF. Primary pAKT-[…] antibody (Cell Signaling Technology, Beverly, Mass.), β-actin (Cell Signaling Technology), and PORCN (Abcam, Cambridge, England) were incubated overnight with subsequent 1 hour incubation with HRP-conjugate secondary antibody. Staining was performed using a chemiluminescent substrate (ThermoFisher). Imaging was performed using an LAS-4000 Luminescent Image Analyzer (Fujifilm, Tokyo, Japan).
(In general: Immunoblotting shows a protein as a band on a membrane.)

For data set [2] the following is noted: known; cited from earlier work.
Data set [3] is described as follows: In vivo single-dose PK, plasma HPLC-MS/MS. Also noted: species or system NSG mice. The settings on record: for AUC(0-inf) / Cmax / Tmax / half-life / Vd/F: NOD-scid IL2Rgamma-null (NSG), mouse, po; for Vd/F: read-out: Vdss/F; for Cl/F: single dose po. The method, then:
For pharmacokinetic studies, NOD-scid IL2Rgamma-null (NSG) mice were obtained from the In Vivo Therapeutics (IVT) Core at the Indiana University School of Medicine and given a single dose of Buparlisib, WNT974, or the combination at pre-established concentrations of 30 mg/kg and 3 mg/kg respectively. This experiment employed 45 NSG mice (n=15 for each group). Plasma was drawn from 3 mice from each group at 0.5, 1, 2, 6, and 24 hours post dosage. Buparlisib and WNT974 were quantified in the plasma using high-performance liquid chromatography-mass spectrometry (HPLC-MS/MS). Pharmacokinetic (PK) parameters for Buparlisib and WNT974 including area under the curve (AUC), area under the moment curve (AUMC), and half-life (t½) were estimated using non-compartmental methods with Excel and WinNonlin v 2.0 (Certara, Princeton, N.J.). The maximum plasma concentration (Cmax) and time of Cmax (tmax) was calculated from the data. The systemic clearance (Cl/F, where F=bioavailability) of each drug was calculated from the dose and AUC0-∝The apparent volume of distribution (Vdss/F) was estimated from the Cl/F and mean residence time. The single-agent pharmacokinetic parameters were compared to the drug combination parameters to determine whether a drug-drug interaction exists.

The test system of a further data set is TMD-231 lung metastases. Nature of the data set: Lung metastases quantification (Ki67), TMD-231 model. The class given is in vivo, NSG mice. The note with it: Ki67 positive pixels in lung sections; Buparlisib 30 mg/kg, WNT974 3 mg/kg. As for the experimental part: For the pharmacodynamic studies, NSG mice were implanted with TMD-231 TNBC cells into the mammary fat pad of 24 NSG mice (6 mice per group: Vehicle, Buparlisib, WNT974, Buparlisib+WNT974). The TMD-231 cell line is a variant of the MDA-MB-231 cell line that metastasizes to the lung. Tumors were allowed to grow for 29 days to an average size of approximately 350 mm^3 prior to dosing. To validate compound-mediated modulation of the PI3K/mTOR and Wnt signaling pathways, mice were dosed once-a-day with vehicle, Buparlisib (30 mg/kg), WNT974 (3 mg/kg), or the combination for 7 days, with intermittent tumor measurements. […] To quantify lung metastases, lungs were extracted, fixed in 10% formalin, and processed in paraffin. Five-micrometer sections were H&E stained, deparaffinized, blocked, and stained using primary anti-human Ki67 antibody (DAKO, Carpinteria, Calif.). The Aperio whole slide digital imaging system was used for imaging (Leica, Wetzlar, Germany). Using the Aperio ScanScope CS, 20× images were taken at scan times ranging from 1.5 to 2.25 minutes. The total nuclear labeling index (Ki67) was generated using the Aperio ImageScope standard positive pixel algorithm. The Image Analysis software was used to calculate the percent of positive pixels (brown staining) in one large cross section from each lung.

The next data set has as its system TMD-231 TNBC cells. Briefly: Pharmacodynamic study, TMD-231 xenograft tumor volume. Format: in vivo, NSG mice. The note with it: single agent, 7 days once-a-day; Buparlisib 30 mg/kg, WNT974 3 mg/kg. The method, then:
For the pharmacodynamic studies, NSG mice were implanted with TMD-231 TNBC cells into the mammary fat pad of 24 NSG mice (6 mice per group: Vehicle, Buparlisib, WNT974, Buparlisib+WNT974). The TMD-231 cell line is a variant of the MDA-MB-231 cell line that metastasizes to the lung. Tumors were allowed to grow for 29 days to an average size of approximately 350 mm^3 prior to dosing. To validate compound-mediated modulation of the PI3K/mTOR and Wnt signaling pathways, mice were dosed once-a-day with vehicle, Buparlisib (30 mg/kg), WNT974 (3 mg/kg), or the combination for 7 days, with intermittent tumor measurements.

[4] abbreviates: drug given alone, Buparlisib 30 mg/Kg, WNT974 3 mg/Kg.
[5] abbreviates: measured drug given in combination with the other, Buparlisib 30 mg/Kg + WNT974 3 mg/Kg.

Read-outs that look alike come from different tables or passages of the source.

Consider `Nc1cc(C(F)(F)F)c(-c2cc(N3CCOCC3)nc(N3CCOCC3)n2)cn1` [Buparlisib, 5-(2,6-di-4-morpholinyl-4-pyrimidinyl)-4-(trifluoromethyl)-2-pyridinamine], for which, in data set [1], the “mice survived to the end of the study” value came out at 40%. Besides, the “Inhibition of Phospho-AKT in tumors” value in the data set with Phospho-AKT is “observed”. The “toxicity / most common side effect in humans” value in data set [2] is “depression, anxiety, pneumonitis, and liver toxicity”. Also, in data set [3] (setting [4]), the AUC(0-inf) – broadly, total exposure, with the tail of the curve extrapolated – came out at 16500 ng·h/mL; the peak concentration (Cmax) (as a rule, the peak of the concentration-time curve) was 2300 ng/mL; the Tmax (as a rule, the time at which the peak concentration occurs) was found to be 1 h; the half-life (in general, the time in which the quantity being followed falls by half) is 180 min. Further, in data set [3] (setting [4]), the Vd/F was determined as 0.15 L and the Cl/F was found to be 0.034 L/h. In data set [3] (setting [5]), the AUC(0-inf) was 15500 ng·h/mL, the Cmax stood at 2850 ng/mL, the Tmax came to 2 h and the half-life was 168 min. In addition, in data set [3] (setting [5]), the Vd/F came out at 0.16 L and the Cl/F came out at 0.035 L/h. In the data set on TMD-231 lung metastases, the “lung metastases compared with the control group” value was “small but non-significant decreases”. Moreover, the “tumor volume change (in words)” value in the data set on TMD-231 TNBC cells is “grew slightly”.

These data come from patent US20160303137A1, “DUAL PI3K AND WNT PATHWAY INHIBITION AS A TREATMENT FOR CANCER” (Indiana University Research and Technology Corporation, priority 2015, published 2016).
